US7279493B2, “Therapeutic agents useful for treating pain” (Euro-Celtique S.A., priority 2002, dated 2007)

How the values were obtained:
[1] = molecular target: T1, human VR1 (Homo sapiens, UniProt Q8NER1); assay: VR1 pH-based assay in HEK293-EcR cells (FLIPR, Fluo-4); type: cell-based; details: activation by agonist buffer giving pH 5.5, human VR1 in PonA-induced HEK293-EcR cells, 50 pM to 3 μM, n+3
T1 construct: expressed in transfected cells
Protocol: Human VR1 cloning. Human spinal cord RNA (commercially available from Clontech, Palo Alto, Calif.) was used. Reverse transcription was conducted on 1.0 μg total RNA using Thermoscript Reverse Transcriptase (commercially available from Invitrogen, Carlsbad, Calif.) and oligo dT primers as detailed in its product description. Reverse transcription reactions were incubated at 55° C. for 1 h, heat-inactivated at 85° C. for 5 min, and RNase H-treated at 37° C. for 20 min. Human VR1 cDNA sequence was obtained by comparison of the human genomic sequence, prior to annotation, to the published rat sequence. Intron sequences were removed and flanking exonic sequences were joined to generate the hypothetical human cDNA. Primers flanking the coding region of human VR1 were designed as follows: forward primer, [NT]; and reverse primer, [NT] of VR1 was performed on one tenth of the Reverse transcription reaction mixture using Expand Long Template Polymerase and Expand Buffer 2 in a final volume of 50 μL according to the manufacturer's instructions (Roche Applied Sciences, Indianapolis, Ind.). After denaturation at 94° C. for 2 min PCR amplification was performed for 25 cycles at 94° C. for 15 sec, 58° C. for 30 sec, and 68° C. for 3 min followed by a final incubation at 72° C. for 7 min to complete the amplification. […]

[2] = molecular target: T1, human VR1; assay: VR1 capsaicin-based assay in HEK293-EcR cells (FLIPR, Fluo-4); type: cell-based
Protocol: Human VR1 cloning. Human spinal cord RNA (commercially available from Clontech, Palo Alto, Calif.) was used. Reverse transcription was conducted on 1.0 μg total RNA using Thermoscript Reverse Transcriptase (commercially available from Invitrogen, Carlsbad, Calif.) and oligo dT primers as detailed in its product description. Reverse transcription reactions were incubated at 55° C. for 1 h, heat-inactivated at 85° C. for 5 min, and RNase H-treated at 37° C. for 20 min. Human VR1 cDNA sequence was obtained by comparison of the human genomic sequence, prior to annotation, to the published rat sequence. Intron sequences were removed and flanking exonic sequences were joined to generate the hypothetical human cDNA. […] On the day of assay, cells were loaded with Fluo-4 (a calcium-sensitive dye that is commercially available from Molecular Probes, Eugene, Oreg.) and CAP-mediated calcium influx was measured using a Fluorometric Imaging Plate Reader (“FLIPR”) (commercially available from Molecular Devices Corp., Sunnyvale, Calif.) as described below. […]

T1 sequence (Q8NER1 whole entry): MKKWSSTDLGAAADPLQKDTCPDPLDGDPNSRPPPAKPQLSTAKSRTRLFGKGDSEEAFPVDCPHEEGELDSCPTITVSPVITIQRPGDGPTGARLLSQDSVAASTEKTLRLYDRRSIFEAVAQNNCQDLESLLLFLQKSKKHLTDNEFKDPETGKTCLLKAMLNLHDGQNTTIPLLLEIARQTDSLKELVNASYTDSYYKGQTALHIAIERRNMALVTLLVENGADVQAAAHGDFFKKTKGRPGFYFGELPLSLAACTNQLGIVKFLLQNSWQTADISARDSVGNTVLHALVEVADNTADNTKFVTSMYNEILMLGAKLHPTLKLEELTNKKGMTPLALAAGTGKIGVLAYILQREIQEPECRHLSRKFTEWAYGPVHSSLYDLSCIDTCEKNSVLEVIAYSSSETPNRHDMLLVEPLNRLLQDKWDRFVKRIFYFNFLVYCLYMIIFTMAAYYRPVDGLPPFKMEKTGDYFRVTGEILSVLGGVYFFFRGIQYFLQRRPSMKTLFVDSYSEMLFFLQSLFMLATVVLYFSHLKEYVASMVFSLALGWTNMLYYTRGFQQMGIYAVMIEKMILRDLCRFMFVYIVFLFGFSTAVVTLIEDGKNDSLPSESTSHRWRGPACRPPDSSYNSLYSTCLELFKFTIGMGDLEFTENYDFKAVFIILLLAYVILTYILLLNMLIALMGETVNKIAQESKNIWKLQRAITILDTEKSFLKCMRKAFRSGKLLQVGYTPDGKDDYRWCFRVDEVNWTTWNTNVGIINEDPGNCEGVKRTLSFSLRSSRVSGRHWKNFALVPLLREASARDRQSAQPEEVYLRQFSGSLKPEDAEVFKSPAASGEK

- IC50 [1]: 197 ± 39.8 nM
- IC50 ([2]; capsaicin-based assay, human VR1 activated by capsaicin (400 nM) in PonA-induced HEK293-EcR cells, 50 pM to 3 μM, n+3): 59.4 ± 13.1 nM
Compound: C[C@@H]1CN(c2ncccc2Cl)CCN1/C(=N\C#N)NCCC1=CCCCC1 [Compound DEY]
- binding to and modulation of human VR1 (conclusion in words) ([2]; conclusion from the pH-based assay and the capsaicin-based assay): binds to and modulates the activity of human VR1
